Results taken from patent US20030130180A1, “Utilization of an aminopeptidase inhibitor” (priority 2000, published 2003).

Tested on: Karpas cells
Assay: Detection of surface protein combinations of the protein network on untreated (V1) and actinonin-treated (V2) Karpas cells
Format: cell-based
Conditions: for V2 no. of cells In 1/1OOO / V2 No. of cells In 1/1000: actinonin-treated Karpas cells (V2)
From the text: Principally, detecting of the surface protein combinations may comprise procedural steps of an automated method for determining molecular classes, molecular groups or molecular parts in a solid or liquid object according to DE 197 09 348 C. In these steps, surface proteins may be examined and measured in one and the same object, i.e. in a sample of immune cells and/or tumor cells for example, by sequentially applying reagent solutions Yn (n=1,2,3, . . . N) by means of an automated apparatus, said procedural steps being: I. taking a first reagent solution Y1 from a vessel containing the reagent solution, II. applying said reagent solution Y1 to the object which is on an object slide, III. allowing the reagent solution to react for an automatically set period of time, IV. recording at least one individual labeling pattern of the object previously labeled with said first reagent solution Y1, V. repeating steps I-IV by applying said first reagent solution Y1 or a second reagent solution Y2 or a mixture of said first and second reagent solutions, and VI. repeating steps I to V with further reagent solutions Yn (n=2,3, . . . N) or a mixture thereof and whereby the labeling distribution patterns obtained in each cycle of the method are turned into a complex molecular combination pattern of the object to be examined by computer-aided image overlay. From this combination pattern, information may be gained on the presence of the above mentioned proteins, thus also allowing detection of the surface protein combinations, if the reagent solutions used contain labeled substances directed against the proteins in question. In numerous examinations, it was possible to identify the 30 cell surface proteins already listed above which belong to a specific protein network controlling the early polarization stages of tumor cells and immune cells. In a further examination, surface protein combinations of this protein network of Karpas cells were detected, both in untreated form and after treatment with the aminopeptidase inhibitor actinonin. For this purpose, two groups V1 and V2 of Karpas cells were formed, with the cells of group Vl remaining untreated, while the cells of group V2 were treated with actinonin. Table 2 lists those surface protein combinations which are present both in the actinonin-treated cells and in the untreated cells. However, this table and the further tables 3 and 4 only give examples of 18 of the 30 proteins, with the detected proteins being designated 1 and the non-detected proteins being designated 0. The proteins are continuously numbered 1 to 18, with the nomenclature being notable from table 1. [table] The cell numbers stated in tables 2 to 4 refer to each 1,000 cells examined in groups V1 and V2. Table 3 lists the surface protein combinations which only occur in the untreated Karpas cells and are never found in the actinonin-treated Karpas cells. The number of protein combinations listed in this table 3 amounts to 131. Finally, table 4 exclusively lists those surface protein combinations which occur exclusively in the actinonin-treated Karpas cells. It may be gathered from tables 2 to 4 that, if one examines merely 18 proteins of the 30 proteins, a total of 394 different surface protein combinations will occur, with a total of 334 different combinations occurring in the untreated cells and a total of 263 different combinations being detected in the treated cells.

CCCCC[C@H](CC(=O)NO)C(=O)N[C@H](C(=O)N1CCC[C@H]1CO)C(C)C [actinonin]
0.3 1/1OOO: V2 no. of cells In 1/1OOO (protein code No. 155, proteins 1-18 binary 111000011100011100) | V2 no. of cells In 1/1OOO (protein code No. 156, proteins 1-18 binary 010000001101000000) | V2 no. of cells In 1/1OOO (protein code No. 157, proteins 1-18 binary 001000010001000100) | V2 no. of cells In 1/1OOO (protein code No. 173, proteins 1-18 binary 011100011100011100)
specific blocking of cell polarization: effect of the modification of surface protein combinations on cell polarization (actinonin-treated Karpas cells)
203: number of surface protein combinations present both in actinonin-treated and untreated cells (Table 2, 18 proteins)
263: number of different surface protein combinations detected in the treated cells (18 of the 30 proteins examined, untreated cells: 334, overall 394)
0.1 1/1OOO: V2 no. of cells In 1/1OOO (protein code No. 149, proteins 1-18 binary 000100010111001000) | V2 no. of cells In 1/1OOO (protein code No. 150, proteins 1-18 binary 000000010101011000) | V2 no. of cells In 1/1OOO (protein code No. 162, proteins 1-18 binary 011100011101011000) | V2 no. of cells In 1/1OOO (protein code No. 163, proteins 1-18 binary 011000011100011100) | V2 no. of cells In 1/1OOO (protein code No. 164, proteins 1-18 binary 010000001101001000) | V2 no. of cells In 1/1OOO (protein code No. 165, proteins 1-18 binary 001000010001001100) | V2 no. of cells In 1/1OOO (protein code No. 174, proteins 1-18 binary 111100001100011100) | V2 no. of cells In 1/1OOO (protein code No. 175, proteins 1-18 binary 101100011101011000) | V2 no. of cells In 1/1OOO (protein code No. 176, proteins 1-18 binary 101000010011001000) | V2 no. of cells In 1/1OOO (protein code No. 177, proteins 1-18 binary 100000000000001000) | V2 no. of cells In 1/1OOO (protein code No. 178, proteins 1-18 binary 000100010101011000) | V2 no. of cells In 1/1OOO (protein code No. 179, proteins 1-18 binary 000000001101001000) | V2 no. of cells In 1/1OOO (protein code No. 187, proteins 1-18 binary 111000001100001000) | V2 no. of cells In 1/1OOO (protein code No. 188, proteins 1-18 binary 101000110111011100) | V2 no. of cells In 1/1OOO (protein code No. 189, proteins 1-18 binary 011100011100001100) | V2 no. of cells In 1/1OOO (protein code No. 190, proteins 1-18 binary 011100011001001000) | V2 no. of cells In 1/1OOO (protein code No. 191, proteins 1-18 binary 010000001111001000) | V2 no. of cells In 1/1OOO (protein code No. 192, proteins 1-18 binary 001100011111011100) | V2 no. of cells In 1/1OOO (protein code No. 193, proteins 1-18 binary 001100010011000000) | V2 no. of cells In 1/1OOO (protein code No. 194, proteins 1-18 binary 001000110011011000) | V2 no. of cells In 1/1OOO (protein code No. 195, proteins 1-18 binary 001000010011001100) | V2 no. of cells In 1/1OOO (protein code No. 198 (first line so numbered, r203), proteins 1-18 binary 001000010010000000)
0.2 1/1OOO: V2 no. of cells In 1/1OOO (protein code No. 151, proteins 1-18 binary 011000001101001000) | V2 no. of cells In 1/1OOO (protein code No. 152, proteins 1-18 binary 010000011101001000) | V2 no. of cells In 1/1OOO (protein code No. 153, proteins 1-18 binary 001100010111011100) | V2 no. of cells In 1/1OOO (protein code No. 154, proteins 1-18 binary 000000001000001000) | V2 no. of cells In 1/1OOO (protein code No. 162 (second line so numbered, r189), proteins 1-18 binary 010000001100011000) | V2 no. of cells In 1/1OOO (protein code No. 166, proteins 1-18 binary 111100111111011100) | V2 no. of cells In 1/1OOO (protein code No. 167, proteins 1-18 binary 111100001100001100) | V2 no. of cells In 1/1OOO (protein code No. 168, proteins 1-18 binary 011000011100000000) | V2 no. of cells In 1/1OOO (protein code No. 169, proteins 1-18 binary 001100010000001000) | V2 no. of cells In 1/1OOO (protein code No. 170, proteins 1-18 binary 001100000001001000) | V2 no. of cells In 1/1OOO (protein code No. 171, proteins 1-18 binary 001000011000000000) | V2 no. of cells In 1/1OOO (protein code No. 172, proteins 1-18 binary 000000010001011000) | V2 no. of cells In 1/1OOO (protein code No. 180, proteins 1-18 binary 111100011111011000) | V2 no. of cells In 1/1OOO (protein code No. 181, proteins 1-18 binary 101100110101011000) | V2 no. of cells In 1/1OOO (protein code No. 183, proteins 1-18 binary 001100010100001000) | V2 no. of cells In 1/1OOO (protein code No. 184, proteins 1-18 binary 001000011011011000) | V2 no. of cells In 1/1OOO (protein code No. 185, proteins 1-18 binary 001000011011000000) | V2 no. of cells In 1/1OOO (protein code No. 186, proteins 1-18 binary 000000011011000000)
0.0 1/1000: V2 No. of cells In 1/1000 (surface protein combination No. 3, binary code proteins 1-18: 011100011101011100, untreated V1: 0.8) | V2 No. of cells In 1/1000 (surface protein combination No. 4, binary code proteins 1-18: 101000010011011000, untreated V1: 0.7) | V2 No. of cells In 1/1000 (surface protein combination No. 5, binary code proteins 1-18: 001000110101011000, untreated V1: 0.7) | V2 No. of cells In 1/1000 (surface protein combination No. 6, binary code proteins 1-18: 000100000000001100, untreated V1: 0.7) | V2 No. of cells In 1/1000 (surface protein combination No. 7, binary code proteins 1-18: 101000011111011000, untreated V1: 0.6) | V2 No. of cells In 1/1000 (surface protein combination No. 8, binary code proteins 1-18: 001000000010000000, untreated V1: 0.6) | V2 No. of cells In 1/1000 (surface protein combination No. 9, binary code proteins 1-18: 111100011101011100, untreated V1: 0.5) | V2 No. of cells In 1/1000 (surface protein combination No. 10, binary code proteins 1-18: 001100011101000000, untreated V1: 0.5) | V2 No. of cells In 1/1000 (surface protein combination No. 11, binary code proteins 1-18: 000000011111001000, untreated V1: 0.5) | V2 No. of cells In 1/1000 (surface protein combination No. 12, binary code proteins 1-18: 111000011101011100, untreated V1: 0.4) | V2 No. of cells In 1/1000 (surface protein combination No. 13, binary code proteins 1-18: 110000001100001000, untreated V1: 0.4) | V2 No. of cells In 1/1000 (surface protein combination No. 14, binary code proteins 1-18: 101100011111001000, untreated V1: 0.4) | V2 No. of cells In 1/1000 (surface protein combination No. 15, binary code proteins 1-18: 101000010001011000, untreated V1: 0.4) | V2 No. of cells In 1/1000 (surface protein combination No. 16, binary code proteins 1-18: 100100000100011000, untreated V1: 0.4) | V2 No. of cells In 1/1000 (surface protein combination No. 17, binary code proteins 1-18: 100100000001001100, untreated V1: 0.4) | V2 No. of cells In 1/1000 (surface protein combination No. 18, binary code proteins 1-18: 100000000000011000, untreated V1: 0.4)
60: number of surface protein combinations occurring exclusively in the actinonin-treated Karpas cells (Table 4, 18 proteins)
131: number of surface protein combinations occurring only in untreated Karpas cells, never found in actinonin-treated cells (Table 3, 18 proteins)
0.5 1/1OOO: V2 no. of cells In 1/1OOO (protein code No. 158, proteins 1-18 binary 100100000000001000) | V2 no. of cells In 1/1OOO (protein code No. 159, proteins 1-18 binary 010000011001000000) | V2 no. of cells In 1/1OOO (protein code No. 160, proteins 1-18 binary 001000010101011100) | V2 no. of cells In 1/1OOO (protein code No. 161, proteins 1-18 binary 000000011001001000)
